pKi: −log10 of the molar value.
The molecules below were run against T1, human Oxytocin-1 (hOT) receptor (Homo sapiens, UniProt P30559) (assay: Determination of antagonist affinity at human Oxytocin-1 receptors using FLIPR (Assay 1)). Details: CHO-hOT cells, [Ca2+]i response to oxytocin (EC80); mean, n>=3; read-out: hOT FLIPR fpKi mean.
T1 construct: expressed in transfected cells
T1 sequence (P30559 1-389): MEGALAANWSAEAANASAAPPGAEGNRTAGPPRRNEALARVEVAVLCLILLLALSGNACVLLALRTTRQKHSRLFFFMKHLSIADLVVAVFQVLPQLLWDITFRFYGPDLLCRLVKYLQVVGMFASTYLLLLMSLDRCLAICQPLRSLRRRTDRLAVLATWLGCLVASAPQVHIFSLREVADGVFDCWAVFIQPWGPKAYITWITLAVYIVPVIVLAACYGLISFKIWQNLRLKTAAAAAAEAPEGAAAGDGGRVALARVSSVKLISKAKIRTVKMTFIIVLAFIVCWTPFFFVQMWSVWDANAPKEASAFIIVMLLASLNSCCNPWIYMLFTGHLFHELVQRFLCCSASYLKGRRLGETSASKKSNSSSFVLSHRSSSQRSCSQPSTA
Format: cell-based
Method: Determination of Antagonist Affinity at Human Oxytocin-1 Receptors Using FLIPR
Adherent Chinese Hamster Ovary (CHO) cells, stably expressing the recombinant human Oxytocin-1 (hOT) receptor, were maintained in culture in DMEM:F12 medium (Sigma, cat no D6421), supplemented with 10% heat inactivated foetal calf serum (Gibco/Invitrogen, cat. no. 01000-147), 2 mM L-glutamine (Gibco/Invitrogen, cat. no. 25030-024) and 0.2 mg/ml G418 (Gibco/Invitrogen, cat no. 10131-027). Cells were grown as monolayers under 95%:5% air:CO2 at 37° C. and passaged every 3-4 days using TrypLE™ Express (Gibco/Invitrogen, cat no. 12604-013).
Measurement of [Ca^2+]i Using the FLIPR™
CHO-hOT cells were seeded into black walled clear-base 384-well plates (Nunc) at a density of 10,000 cells per well in culture medium as described above and maintained overnight (95%:5% air:CO2 at 37° C.). After removal of culture medium, cells were incubated for 1 h at 37° C. in Tyrode's medium (NaCl, 145 mM; KCl, 2.5 mM; HEPES, 10 mM; Glucose, 10 mM; MgCl2, 1.2 mM; CaCl2, 1.5 mM) containing probenacid (0.7 mg/ml), the cytoplasmic calcium indicator, Fluo-4 (4 uM; Teflabs, USA) and the quenching agent Brilliant Black (250 uM; Molecular Devices, UK). Cells were then incubated for an additional 30 min at 37° C. with either buffer alone or buffer containing OT antagonist, before being placed into a FLIPR™ (Molecular Devices, UK) to monitor cell fluorescence (λex=488 nm, λEM=540 nm) before and after the addition of a submaximal concentration of oxytocin (EC80).
Functional responses using FLIPR were analysed using Activity Base Version 5.0.10. Data are reported as mean values, wherein number of times tested (n) is greater than or equal to 3.

Compound	pKi
Cc1ccc([C@H](C(=O)N(C)C)N2C(=O)[C@@H](C3Cc4ccccc4C3)NC(=O)[C@H]2CC(C)C)cn1 [Comparator X, (2R)-2-[(3R,6R)-3-(2,3-dihydro-1H-inden-2-yl)-6-isobutyl-2,5-dioxopiperazin-1-yl]-N,N-dimethyl-2-(6-methylpyridin-3-yl)ethanamide, reference compound]	7.60 to 8.10
Cc1nc([C@H](C(=O)N2CCOCC2)N2C(=O)[C@@H](C3Cc4ccccc4C3)NC(=O)[C@H]2CC(C)C)co1 [Comparator Y, (3R,6R)-3-(2,3-dihydro-1H-inden-2-yl)-1-[(1R)-1-(2-methyl-1,3-oxazol-4-yl)-2-(4-morpholinyl)-2-oxoethyl]-6-(2-methylpropyl)-2,5-piperazinedione, reference compound]	7.00 to 7.50
CCC(CC)[C@@H]1C(=O)N[C@H](C2Cc3ccccc3C2)C(=O)N1[C@@H](C(=O)NC)c1ccc(C)nc1 [Example 1, (2R)-2-[(3R,6R)-3-(2,3-Dihydro-1H-inden-2-yl)-6-(1-ethylpropyl)-2,5-dioxo-1-piperazinyl]-N-methyl-2-(6-methyl-3-pyridinyl)ethanamide]	8.20 to 8.70
CCC(CC)[C@@H]1C(=O)N[C@H](C2Cc3ccccc3C2)C(=O)N1[C@@H](C(=O)N(C)C)c1ccc(C)nc1 [Example 2, (2R)-2-[(3R,6R)-3-(2,3-Dihydro-1H-inden-2-yl)-6-(1-ethylpropyl)-2,5-dioxo-1-piperazinyl]-N,N-dimethyl-2-(6-methyl-3-pyridinyl)ethanamide]	8.80 to 9.30
CCC(CC)[C@@H]1C(=O)N[C@H](C2Cc3ccccc3C2)C(=O)N1[C@@H](C(=O)NC)c1ccc(C)nc1C [Example 3, (2R)-2-[(3R,6R)-3-(2,3-Dihydro-1H-inden-2-yl)-6-(1-ethylpropyl)-2,5-dioxo-1-piperazinyl]-2-(2,6-dimethyl-3-pyridinyl)-N-methylethanamide]	8.80 to 9.30
CCC(CC)[C@@H]1C(=O)N[C@H](C2Cc3ccccc3C2)C(=O)N1[C@@H](C(=O)N(C)C)c1ccc(C)nc1C [Example 4, (2R)-2-[(3R,6R)-3-(2,3-Dihydro-1H-inden-2-yl)-6-(1-ethylpropyl)-2,5-dioxo-1-piperazinyl]-2-(2,6-dimethyl-3-pyridinyl)-N,N-dimethylethanamide]	8.80 to 9.30
CCC(CC)[C@@H]1C(=O)N[C@H](C2Cc3ccccc3C2)C(=O)N1[C@@H](C(=O)N1CCOCC1)c1ccc(C)nc1C [Example 5, (3R,6R)-3-(2,3-Dihydro-1H-inden-2-yl)-1-[(1R)-1-(2,6-dimethyl-3-pyridinyl)-2-(4-morpholinyl)-2-oxoethyl]-6-(1-ethylpropyl)-2,5-piperazinedione]	≥ 9.40
CCC(CC)[C@@H]1C(=O)N[C@H](C2Cc3ccccc3C2)C(=O)N1[C@@H](C(=O)NC)c1ccc2c(cnn2C)c1 [Example 6, (2R)-2-[(3R,6R)-3-(2,3-Dihydro-1H-inden-2-yl)-6-(1-ethylpropyl)-2,5-dioxo-1-piperazinyl]-N-methyl-2-(1-methyl-1H-indazol-5-yl)acetamide]	≥ 9.40
CCC(CC)[C@@H]1C(=O)N[C@H](C2Cc3ccccc3C2)C(=O)N1[C@@H](C(=O)N(C)C)c1ccc2c(cnn2C)c1 [Example 7, (2R)-2-[(3R,6R)-3-(2,3-Dihydro-1H-inden-2-yl)-6-(1-ethylpropyl)-2,5-dioxo-1-piperazinyl]-N,N-dimethyl-2-(1-methyl-1H-indazol-5-yl)ethanamide]	≥ 9.40
CCC(CC)[C@@H]1C(=O)N[C@H](C2Cc3ccccc3C2)C(=O)N1[C@@H](C(=O)N1CCOCC1)c1ccc2c(cnn2C)c1 [Example 8, (3R,6R)-3-(2,3-Dihydro-1H-inden-2-yl)-6-(1-ethylpropyl)-1-[(1R)-1-(1-methyl-1H-indazol-5-yl)-2-(4-morpholinyl)-2-oxoethyl]-2,5-piperazinedione]	≥ 9.40
CCC(CC)[C@@H]1C(=O)N[C@H](C2Cc3ccccc3C2)C(=O)N1[C@@H](C(=O)N1CCOCC1)c1coc(C)n1 [Example 9, (3R,6R)-3-(2,3-Dihydro-1H-inden-2-yl)-6-(1-ethylpropyl)-1-[(1R)-1-(2-methyl-1,3-oxazol-4-yl)-2-(4-morpholinyl)-2-oxoethyl]-2,5-piperazinedione]	8.80 to 9.30
